From US20260083768A1, “INFLAMMASOME INHIBITION FOR NEUROPROTECTION” (University of Virginia Patent Foundation, priority 2022, published 2026)

Assays:
[1] = test system: retinal electrical function; assay: Full-field scotopic ERG in RRD/SRR mouse model; type: in vivo, mice
Protocol: FIGS. 7A-7D. K-9 improves ERG functional outcomes in RRD/SRR model (A) Experiment overview: the RRD/SRR model was established day 0 (SRI of 3 μl 0.03% CMC). K-9 (60 mg/kg) or PBS was administered days 0-10 twice daily IP. Scotopic ERG was measured at baseline, as well as days 7, 11, and 14. In 7A-D, n=10-12 per group. (B) ERG waveforms representative of the K-9 and PBS groups, at baseline and day 14. (C) Amplitudes of a- and b-waves over time in the K-9 (red) and PBS (blue) groups at the stimulation intensity of 1.0 log cd sec/m2. […] Data (7C-D) is represented as mean±SEM. (D) AA from baseline for PBS (blue) and K-9 (red) groups.
RRD was induced in mice via subretinal injection (SRI) of 1% carboxymethylcellulose (CMC). To simulate outcomes following the clinical management of RRD, optimal conditions were determined in which SRI of CMC induced spontaneous retinal reattachment (SRR) over 10 days (RRD/SRR). […] Inflammasome activation was monitored by cleaved caspase-1 abundance, and photoreceptor death was assessed by TUNEL staining. Retinal function was assessed by full-field scotopic electroretinography (ERG). […]
ERG was recorded at baseline, as well as days 7, 11, and 14 following SRI of CMC. Mice (n=6) were dark adapted overnight, and then ERG was measured using Ganzfeld ERG (Phoenix Laboratories). […] Responses were recorded to white-flash stimuli ranging from −1.7 to 1.0 log cd s/m2. […]

retinal function = assay: Scotopic ERG in rd10 mouse model of retinal neuronal degeneration; type: in vivo; settings: rd10 mice; 60 mg/kg twice daily IP, P15 until P28; vs vehicle (PBS)
Protocol: (§1) FIG. 8. K-9 protects retinal function. Starting at postnatal day 15 (P15) until P28, rd10 mice were treated with K-9 at 60 mg/kg twice daily via intraperitoneal injection or with an equal volume of vehicle (PBS). Retinal function was monitored with scotopic electroretinography (ERG).
as §1, with “K-9” for “FIG. 8. K-9”, “function in the rd10 mouse model of retinal neuronal degeneration. rd10 is an autosomal missense R560C mutation in the Pde6b gene, which results in a recessively inherited retinal neuronal degeneration (FIG. 8).” for “function.”

photoreceptors = assay: TUNEL staining of retinal outer nuclear layer in mouse RRD model (photoreceptor death); type: in vivo, mice
Protocol: (§2) RRD was induced in mice via subretinal injection (SRI) of 1% carboxymethylcellulose (CMC). To simulate outcomes following the clinical management of RRD, optimal conditions were determined in which SRI of CMC induced spontaneous retinal reattachment (SRR) over 10 days (RRD/SRR). K-9, 3TC, or AZT was administered via intraperitoneal (IP) injection. Inflammasome activation was monitored by cleaved caspase-1 abundance, and photoreceptor death was assessed by TUNEL staining. Retinal function was assessed by full-field scotopic electroretinography (ERG).
(§3) A persistent RRD model was established by subretinal injection (SRI) of 3 μl 1% carboxymethyl cellulose (CMC; Refresh Liquigel, Allergan, Irvine, CA, USA). The model of RRD/SRR was achieved by SRI of 3 μl 0.03% CMC. SRIs were performed as previously described (23) using a 35-gauge needle (Ito Co., Fuji, Japan).
(§4) NRTIs and K-9 were delivered via intraperitoneal (IP) injection in equimolar amounts. Lamivudine (3TC, 50 mg/kg) or azidothymidine (AZT, 60 mg/kg) was injected twice daily (SelleckChem, Houston, TX, USA). Kamuvudine K-9 (3-methyl-3TC) was synthesized as previously described (21) and administered either at a low dose (K-9L; 90 mg/kg daily) or a high dose (K-9H; 60 mg/kg twice daily, equimolar to NRTI doses). IP injection of phosphate buffered saline (PBS) was used as control. […]

caspase-1 = assay: Retinal cleaved caspase-1 immunoblot in mouse RRD model (inflammasome activation); type: in vivo, mice
Protocol: as §2, §3, §4

CCOCC1OC(n2ccc(N(CC)CC)nc2=O)CS1 (stereo not shown) [K-9, 4-(diethylamino)-1-[2-(ethoxymethyl)-1,3-oxathiolan-5-yl]-1,2-dihydropyrimidin-2-one]
retinal electrical function (ERG a- and b-wave amplitudes) ([1]; RRD/SRR model (SRI 3 μl 0.03% CMC), K-9 60 mg/kg twice daily IP days 0-10, ERG days 7-14, vs PBS): preserves retinal electrical function | ERG parameters following retinal reattachment ([1]; RRD/SRR model, K-9 administered during the period of retinal detachment): improvement | ERG a-wave and b-wave (retinal function): completed protection | degree of photoreceptor protection (photoreceptors; day 3 RRD model, TUNEL, IP, mean±SEM, K-9 versus NRTIs P<0.05): 56%±7% | number of TUNEL+ cells in the ONL of the retina (photoreceptors; three days after inducing RRD, IP treatment, compared with PBS-treatment): dose-dependent reduction | degree of suppression of caspase-1 activation (caspase-1; day 3 RRD model, IP, mean±SEM, K-9 versus NRTIs P<0.05): 84%±1% | retinal cleaved caspase-1 (caspase-1; three days after inducing RRD (SRI 3 μl 1% CMC), IP treatment, compared with PBS-treated mice): dose-dependent and complete reduction
